The values below come from US7160983B2, “Echinocandin derivatives, their method of preparation and their application as anti-fungal agents” (Aventis Pharma S.A., priority 1997, dated 2007).

In the test the test system is Glucane Synthesis of Candida Albicans. The experiment in a line: Inhibition of the glucane synthesis of Candida albicans (membrane preparation, 14C-UDP glucose incorporation). Type of test: biochemical. As to conditions: Candida albicans membranes, 25° C., 1 hour. The procedure:
Pharmacological Study A—Inhibition of the Glucane Synthesis of Candida Albicans.
The membranes of Candida albicans are purified according to the process described by Tang and al Antimicrob. Agents Chemother 35, 99–103, 1991. 22.5 μg of membrane proteins are incubated in a mixture of 2 Mm of 14C-UDP glucose (specific activity=0.34 mCi./mmol, 50 μg of α-amylase, 1 Mm of dithiotreitol (DTT), 1 Mm EDTA, 100 Mm NaF, 7 μM of GTP-γ-S, 1M of sucrose and 5 oMm OF Ttris-HCL (pH 7.8) in a volume of 100 μl. The medium is incubated at 25° C. for 1 hour and the reaction terminated by addition of TCA to a final concentration of 5%. The reaction medium is transferred onto a pre-humidified glass fibre filter. The filter is washed, dried and its radioactivity is counted.
Mulundocandin is used as positive control.
The control of the medium is carried out with the same quantity of DMSO 1%.
“(±) Trifluoroacetate of 1-[4-[(aminoiminomethyl)hydrazono]-N2-(12-methyl-1-oxotetradecyl)-L-ornithine]4-[4-(4-hydroxyphenyl)-L-threonine]-5-L serine echinocandin B [Example 11]”: the “Inhibition of the glucane synthesis of Candida albicans (activity in words)” value is on record as “good activity”. With “Trifluoroacetate of 1-[4-[(2-aminoethyl) amino]-N2-(12-methyl-1-oxotetradecyl)-L-ornithine]4-[4-(4-hydroxyphenyl)-L-threonine]-5-L serine echinocandin B (isomer A and isomer B) [Example 9]” the entry was “good activity”; with “Trifluoroacetate of 1-[4-[(2-aminoethyl) amino]N2-[[4′-(octyloxy)[1.1′-biphenyl]-4-[carbonyl]-L-ornithine]4-[4-(4-(4-hydroxyphenyl)-L-threonine]-5-L serine echinocandin B (isomer A) [Example 14]”, “good activity”.
